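Compound exposure: 48 hours, 5 concentrations, 96-well plates. GI50: concentration for 50% inhibition of growth.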 The source made the active and inactive calls. No stated cut-off is given here; in the data, active = GI50 up to about 1.1 µM and inactive = higher.
Assays:
Test in all cases: NCI anticancer screen, dose series, 48 h
HCT-116 = system: HCT-116
KM12 = system: KM12
NCI-H23 = system: NCI-H23
ACHN = system: ACHN
CCRF-CEM = system: CCRF-CEM
U-251 = system: U-251
OVCAR-4 = system: OVCAR-4
EKVX = system: EKVX
UACC-62 = system: UACC-62
SW-620 = system: SW-620
SF-539 = system: SF-539
COLO 205 = system: COLO 205
MDA-MB-231 = system: MDA-MB-231
HL-60 = system: HL-60
Hs-578T = system: Hs-578T
A549 = system: A549
MDA-MB-435 = system: MDA-MB-435
DU-145 = system: DU-145
RPMI-8226 = system: RPMI-8226
Malme-3M = system: Malme-3M

Structure (SMILES) | GI50 (HCT-116) | GI50 (KM12) | GI50 (NCI-H23) | GI50 (ACHN) | GI50 (CCRF-CEM) | GI50 (U-251) | GI50 (OVCAR-4) | GI50 (EKVX) | GI50 (UACC-62) | GI50 (SW-620) | GI50 (SF-539) | GI50 (COLO 205) | GI50 (MDA-MB-231) | GI50 (HL-60) | GI50 (Hs-578T) | GI50 (A549) | GI50 (MDA-MB-435) | GI50 (DU-145) | GI50 (RPMI-8226) | GI50 (Malme-3M)
CC(C)OC1=C(CC2(C)OCCO2)C(=O)C12OCCO2 | > 100 µM (inactive) | > 100 µM (inactive) | 42 µM (inactive) | > 100 µM (inactive) | > 100 µM (inactive) | > 100 µM (inactive) | > 100 µM (inactive) | > 100 µM (inactive) | > 100 µM (inactive) | > 100 µM (inactive) | > 100 µM (inactive) | > 100 µM (inactive) | > 100 µM (inactive) | > 100 µM (inactive) | > 100 µM (inactive) | > 100 µM (inactive) | > 100 µM (inactive) | > 100 µM (inactive) | – | –
CC(=O)Nc1ccc2c(C)c3c(nc2n1)[nH]c1ccccc13 | 21.6 µM (inactive) | 21.9 µM (inactive) | 25.2 µM (inactive) | 17.8 µM (inactive) | 30.6 µM (inactive) | 32.4 µM (inactive) | 38.7 µM (inactive) | 23.1 µM (inactive) | 22.6 µM (inactive) | 37.1 µM (inactive) | 57.3 µM (inactive) | 17.2 µM (inactive) | 35.1 µM (inactive) | – | 19.8 µM (inactive) | 41.1 µM (inactive) | 29.6 µM (inactive) | 33.6 µM (inactive) | 27.2 µM (inactive) | –
Clc1ccc(C2ON=C(c3ccccc3)N2C23CC4CC(CC(C4)C2)C3)c(Cl)c1 (centres undefined) | > 10 µM (inactive) | > 10 µM (inactive) | > 10 µM (inactive) | > 10 µM (inactive) | > 10 µM (inactive) | > 10 µM (inactive) | > 10 µM (inactive) | > 10 µM (inactive) | > 10 µM (inactive) | > 10 µM (inactive) | > 10 µM (inactive) | > 10 µM (inactive) | > 10 µM (inactive) | – | > 10 µM (inactive) | > 10 µM (inactive) | > 10 µM (inactive) | > 10 µM (inactive) | > 10 µM (inactive) | > 10 µM (inactive)
COC(=O)/C=C\C(C#N)(C#N)/N=C/c1ccsc1 | 1.75 µM (inactive) | 14.5 µM (inactive) | 7.45 µM (inactive) | 1.42 µM (inactive) | 0.216 µM (active) | 15.8 µM (inactive) | 18.5 µM (inactive) | 4.46 µM (inactive) | 4.8 µM (inactive) | 1.28 µM (inactive) | – | 1.37 µM (inactive) | 5.73 µM (inactive) | 0.429 µM (active) | 10.6 µM (inactive) | 17.7 µM (inactive) | 5.4 µM (inactive) | 8.05 µM (inactive) | 1.25 µM (inactive) | 1.51 µM (inactive)
CSc1ccc(/C=C2\N=C(c3ccccc3)N(c3nc4ccc(Sc5ccccc5)cc4[nH]3)C2=O)cc1 | 14.7 µM (inactive) | 15.3 µM (inactive) | 26.3 µM (inactive) | 30.8 µM (inactive) | 27.4 µM (inactive) | 16.7 µM (inactive) | 30.9 µM (inactive) | 31 µM (inactive) | 14.2 µM (inactive) | 17.9 µM (inactive) | – | 13.9 µM (inactive) | 18.3 µM (inactive) | 14.2 µM (inactive) | 18.6 µM (inactive) | 35.5 µM (inactive) | 5.28 µM (inactive) | 27.6 µM (inactive) | 20.2 µM (inactive) | 16.6 µM (inactive)
NS(=O)(=O)c1nnc(NC(=O)c2ccccc2)s1 | > 100 µM (inactive) | > 100 µM (inactive) | > 100 µM (inactive) | > 100 µM (inactive) | – | > 100 µM (inactive) | 0.536 µM (active) | > 100 µM (inactive) | > 100 µM (inactive) | > 100 µM (inactive) | > 100 µM (inactive) | > 100 µM (inactive) | > 100 µM (inactive) | – | > 100 µM (inactive) | > 100 µM (inactive) | > 100 µM (inactive) | > 100 µM (inactive) | > 100 µM (inactive) | > 100 µM (inactive)
O=C1OC(c2ccc(O)c(Cl)c2)(c2ccc(O)c(Cl)c2)c2ccc(Br)c3cccc1c23.O=C1OC(c2ccc(O)c(Cl)c2)(c2ccc(O)c(Cl)c2)c2cccc3c(Br)ccc1c23 | 19.3 µM (inactive) | 24.1 µM (inactive) | 16.7 µM (inactive) | – | 16.9 µM (inactive) | 20.1 µM (inactive) | 2.67 µM (inactive) | 14 µM (inactive) | 12.4 µM (inactive) | 23.9 µM (inactive) | 18.2 µM (inactive) | 7.05 µM (inactive) | 14.2 µM (inactive) | – | 29.3 µM (inactive) | 18.8 µM (inactive) | 18 µM (inactive) | 23.7 µM (inactive) | 16.9 µM (inactive) | 18.9 µM (inactive)

— ChEMBL document CHEMBL1201862, “PubChem BioAssay data set” (2004)
